Test results as given in PMC9078263 (RSC Advances, 2018).

The molecules below were run against New Delhi metallo-β-lactamase 1 (NDM-1) (Acinetobacter baumannii, UniProt F8UNN7) (assay: steady-state kinetics of hydrolysis).
Chain of New Delhi metallo-β-lactamase 1 (NDM-1) (F8UNN7 1-270): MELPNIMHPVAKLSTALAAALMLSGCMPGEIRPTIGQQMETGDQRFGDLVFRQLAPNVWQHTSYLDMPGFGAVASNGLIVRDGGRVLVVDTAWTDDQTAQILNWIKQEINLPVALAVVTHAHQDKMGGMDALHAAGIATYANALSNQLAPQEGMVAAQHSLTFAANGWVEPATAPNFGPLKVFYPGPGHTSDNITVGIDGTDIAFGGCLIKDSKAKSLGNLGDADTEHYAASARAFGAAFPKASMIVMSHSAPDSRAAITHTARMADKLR
Type: biochemical
In the case of `CO[C@@]1(NC(=O)Cc2cccs2)C(=O)N2C(C(=O)O)=C(COC(N)=O)CS[C@@H]21` [cefoxitin], the Km is reported as > 60 µM. With `CC(C)(O/N=C(\C(=O)N[C@@H]1C(=O)N2C(C(=O)[O-])=C(C[n+]3ccccc3)CS[C@H]12)c1csc(N)n1)C(=O)O` [ceftazidime] the Km was > 60 µM. With `C[C@@H](O)[C@H]1C(=O)N2C(C(=O)O)=C(S[C@@H]3CN[C@H](C(=O)N(C)C)C3)[C@H](C)[C@H]12` [meropenem] the Km was > 60 µM.
